From publication PMC9000864, “Pentacyclic Triterpenoids from Sabia discolor Dunn and Their α-Glycosidase Inhibitory Activities” (Molecules, 2022)

Molecular target: α-glucosidase
Experiment: α-glucosidase inhibition assay (PNPG method)
Type: biochemical, saccharomyces cerevisiae
Details: for IC50: absorbance at 405 nm, 37 °C, n = 3, read-out: α-glucosidase inhibitory activity IC50; for α-glycosidase inhibitory activity (in words): compared with positive control acarbose
From the text: Altogether, dimethyl sulfoxide (DMSO; Beijing Mr. Lai Treasure Company, Beijing, China); phosphate buffer solution (PBS; HyClone); centrifuge tubes, 96 cell culture plates, and other consumables (NEST Biotechnology Co. Ltd., Beijing, China); and α-glucosidase (Sigma Company, St. Louis, MO, USA) from saccharomyces cerevisiae were obtained for this study. […] The absorbance was read using a microplate reader (Varioskan LUX, Thermo, Waltham, MA, USA) at 405 nm. The results were obtained for at least three independent experiments. The inhibitory activity of α-glucosidase was determined by the PNPG method. […] Then, 20 μL of PNPG (2.5 mmol/L) was added, mixed by shock, and incubated in a 37 °C constant-temperature incubator for 15 min. Then, 80 μL of Na2CO3 […] solution was added to stop the reaction and the absorbance was measured by a microplate reader at 405 nm. […] Inhibition rate = [(OD negative − OD blank) − (OD sample − OD background)]/(OD negative − OD blank) × 100%.

| Structure (SMILES) | IC50 | α-glycosidase inhibitory activity (in words) |
| --- | --- | --- |
| CC1(C)CC[C@]2(CO)CC[C@]3(C)C(=CCC4[C@@]5(C)C(=O)C[C@@H](O)C(C)(C)C5CC[C@]43C)C2C1 (stereo partly drawn) [Compound 1, 3α, 28-dihydroxy-12-oleanene-l-one] | 270 ± 49.9 nM | more significant activity than the positive control |
| CC1(C)CC[C@]2(C)CC[C@]3(C)C(=CC=C4[C@]5(C)C(CC[C@]43C)C(C)(C)[C@@H](O)C[C@@H]5O)C2C1 (some centres unmarked) [Compound 3, juglangenin A] | 110 ± 22.2 nM | – |
| CC1=CCC2(C)CCC3(C)C(CCC4C5(C)C(O)CC(O)C(C)(C)C5CCC43C)C2C1C (stereo not drawn) [Compound 7, 20-taraxastene-1β, 3β -diol] | 560 ± 33.1 nM | – |
| CC1=CCC2(C)CCC3(C)C(CCC4C5(C)CCC(O)C(C)(C)C5C(O)CC43C)C2C1C (stereo not drawn) [Compound 8, 6β-pseudotaraxasterol] | 230 ± 13.5 nM | more significant activity than the positive control |
| CC1CCC2(C)CCC3(C)C4CCC5C(C)(C)C(O)CCC5(C)C4(C)CCC3(O)C2C1C (stereo not drawn) [Compound 9, ursan-3β, 13β-diol] | 230 ± 30.7 nM | more significant activity than the positive control |
| CC1=CC[C@]2(C)CC[C@]3(C)C(CCC4[C@@]5(C)CCC(=O)C(C)(C)C5CC[C@]43C)C2[C@H]1C (some centres unmarked) [Compound 13, ψ-taraxasterone] | 260 ± 38.3 nM | – |
| C=C(C)[C@@H]1CC[C@]2(CO)CC[C@]3(C)C(CCC4[C@@]5(C)CC[C@H](O)C(C)(C)C5CC[C@]43C)C12 (some centres unmarked) [Compound 15, birch ester alcohol] | 90 ± 4.5 nM | best activity |
